Laboratory results: publication PMC6211316, “Synthesis and biological evaluation of 3-arylcoumarin derivatives as potential anti-diabetic agents” (Journal of Enzyme Inhibition and Medicinal Chemistry, 2018)
Where two headings read alike, the source gives them in different places.

Experiments:
[1] = DPPH free radical scavenging; conditions: mean ± SD (n = 3)
Method: The effect of target compounds and vitamin C to scavenge the DPPH free radical was evaluated with the method described by Villano et al.[43] with slight modifications.
Two millilitres of different concentrations of the sample solution was added to 2.0 ml of DPPH solution (0.04 mg/mL), shaken and allowed to react at room temperature for 30 min. The absorbance value was measured at 517 nm with an ultraviolet-visible spectrophotometer. The blank reference cuvette contained absolute ethanol. All measurements were performed in triplicate. IC50 values were calculated. The percentage of DPPH radical scavenging rate of the target compound is calculated as follows: DPPH free radical scavenging effect (%)=[A0−(A1−A2)]/A0×100% where A0 is the absorbance of 2.0 ml DPPH solution +2.0 ml absolute ethanol; A1 is the absorbance of 2.0 ml DPPH solution +2.0 ml 3-arylcoumarins solution or standard; A2 is the absorbance of 2.0 ml 3-arylcoumarins solution or standard +2.0 ml absolute ethanol.

[2] = hydroxyl radical scavenging; conditions: mean ± SD (n = 3), read-out: OH IC50 Value
Method: The ability of the target compounds and vitamin C to scavenge the hydroxyl radical was evaluated with method described by Ismaili et al.[29] with slight modifications. In test tube, 1.0 ml H2O2 solution (0.03%), 1.0 ml FeSO4 solution (2 mmol.L^−1), 1.0 ml salicylic acid solution (10 mmol.L^−1) and 1.0 ml of 3-arylcoumarins and standard water solution with different concentration (0.4–2.0 mg/mL) were mixed. Finally, 1.0 ml H2O2 solution (0.03%) was added to this mixture to start the reaction. Solutions were kept at 37 °C. After 30 min, the absorbance was measured at 510 nm against the reagent blank, where the distilled water was substituted for the H2O2 solution. The percentage of OH scavenging by target compounds and vitamin C was calculated the following equation: OH scavenging effect (%)=[A0−(A1−A2)]/A0×100% where A0 is the absorbance of 1.0 ml distilled water +1.0 ml H2O2 + 1.0 ml FeSO4 + 1.0 ml salicylic acid +1.0 ml H2O2; A1 is the absorbance of 1.0 ml 3-arylcoumarins or standard +1.0 ml H2O2 + 1.0 ml FeSO4 + 1.0 ml salicylic acid +1.0 ml H2O2; A2 is the absorbance of 1.0 ml 3-arylcoumarins or standard +1.0 ml H2O2 + 1.0 ml FeSO4 + 1.0 ml absolute absolute ethanol +1.0 ml H2O2.

α-Glucosidase = target: T1, α-Glucosidase (Saccharomyces cerevisiae, UniProt P53341); assay: biochemical; type: biochemical
T1 construct: purchased Sigma Aldrich G0660-750UN
T1 sequence (P53341 whole entry): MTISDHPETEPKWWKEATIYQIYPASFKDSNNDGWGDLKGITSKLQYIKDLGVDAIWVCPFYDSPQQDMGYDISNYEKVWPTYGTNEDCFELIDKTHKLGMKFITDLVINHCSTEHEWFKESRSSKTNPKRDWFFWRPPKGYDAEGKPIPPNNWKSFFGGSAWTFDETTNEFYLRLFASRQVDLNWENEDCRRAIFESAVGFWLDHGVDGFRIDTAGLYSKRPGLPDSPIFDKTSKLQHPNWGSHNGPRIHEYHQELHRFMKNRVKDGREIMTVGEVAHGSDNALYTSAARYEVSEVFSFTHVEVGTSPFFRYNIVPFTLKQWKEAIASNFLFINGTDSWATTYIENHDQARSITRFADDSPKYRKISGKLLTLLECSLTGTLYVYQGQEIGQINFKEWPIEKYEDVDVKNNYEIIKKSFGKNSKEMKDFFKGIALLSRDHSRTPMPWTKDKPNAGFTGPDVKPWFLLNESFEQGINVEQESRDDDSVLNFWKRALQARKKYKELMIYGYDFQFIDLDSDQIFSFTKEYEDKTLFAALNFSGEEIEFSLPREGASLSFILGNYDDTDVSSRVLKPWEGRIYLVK
Method: α-Glucosidase (G0660-750UN, Sigma Aldrich) and 4-Nitrophenyl α-D-glucopyranoside (PNPG, Macklin) were dissolved in phosphate buffer (pH 6.8, 100 mM), and the test compounds were dissolved in DMSO solution. The experiment was divided into blank group, control group, sample blank group, and sample group. The reagents were loaded in 96-well plates at the dose of the table (Table 8). The solution was bathed in 37 °C water for 10 min, and then enzyme solution was added. After reaction at 37 °C for 20 min, 70 μL Na2CO3 solution ([…]) was added to stop the reaction. All experiments were run in triplicate. […] Since PNPG can produce glucose and p-Nitrophenol (PNP) under the action of α-glucosidase, PNP has the greatest absorption at 405 nm. The absorbance was determined by the microplate reader, and the inhibition rate of α-glucosidase and the IC50 value of each sample were calculated according to the formula. Inhibition rate %={[(AC−AB)−(AS−ASB)]/(AC−AB)}×100% where AC is the absorbance of control group; AB is the absorbance of blank group; AS is the absorbance of sample group; ASB is the absorbance of sample blank group.

AGEs formation = assay: In vitro inhibitory activity of AGEs formation (bovine serum albumin/glucose); type: biochemical; conditions: mean ± SD (n = 3)
Method: To prepare the AGEs reaction solution, 10 mg/mL of bovine serum albumin in 50 mM PBS (pH 7.4) was added to 0.2 M glucose, and 0.02% sodium azide was added to prevent bacterial growth. The reaction mixture (3.0 ml) was then mixed with various concentrations (0.5–1000 μg/mL) of the target compounds (1.0 ml) dissolved in DMSO. After incubating at 37 °C for 14 d, the fluorescence intensity of AGE was determined by a fluorospectrophotometer (PE, USA) with excitation and emission wavelengths at 350 nm and 420 nm, respectively. All experiments were run in triplicate. Aminoguanidine hydrochloride was used as a reference compound. The inhibition rate of AGEs formation and the IC50 value of each sample were calculated according to the formula. Inhibition rate %={[(AC−AB)−(AS−ASB)]/(AC−AB)}×100% where AC is the absorbance of control group(1.0 ml glucose +1.0 ml bovine serum albumin +1.0 ml sodium azide +1.0 ml DMSO); AB is the absorbance of blank group(1.0 ml PBS +1.0 ml bovine serum albumin +1.0 ml sodium azide +1.0 ml DMSO); AS is the absorbance of sample group (1.0 ml glucose +1.0 ml bovine serum albumin +1.0 ml sodium azide +1.0 ml target compound solution or Aminoguanidine hydrochloride solution); ASB is the absorbance of sample blank group (1.0 ml PBS +1.0 ml bovine serum albumin +1.0 ml sodium azide +1.0 ml target compound solution or Aminoguanidine hydrochloride solution).

Row | IC50 (α-Glucosidase; mean ± SD (n = 3), read-out: α-Glucosidase inhibitory activity IC50 Value) [µM] | Compound | IC50 [1] [µM] | IC50 [2] [µM] | IC50 (α-Glucosidase) [µM] | IC50 (AGEs formation) [µM] | melting point [°C] | α-glucosidase inhibitory activity (in words) (α-Glucosidase; in vitro)
1 |  | Cc1ccc(-c2cc3cccc(O)c3oc2=O)cc1 [Compound 8, 8-Hydroxy-3-(4-methylphenyl)-coumarin] | > 1000 | > 1000 | 69.6 ± 5.32 | 31.9 ± 2.02 | 211.7 to 212.5 | 
2 |  | Cc1ccccc1-c1cc2cccc(O)c2oc1=O [Compound 10, 8-Hydroxy-3-(2-methylphenyl)-coumarin] | > 1000 | > 1000 | > 1000 | > 1000 | 212.7 to 213 | 
3 |  | O=c1oc2cc(O)ccc2cc1-c1ccccc1O [Compound 16, 7-Hydroxy-3-(2-hydroxyphenyl)-coumarin] | > 1000 | > 1000 | 10.2 ± 0.75 | 20.47 ± 0.2 | 200.3 to 202.3 | moderate to excellent inhibitory activity
4 |  | O=c1oc2c(O)cccc2cc1-c1ccc(F)cc1 [Compound 19, 8-Hydroxy-3-(4-fluorophenyl)-coumarin] | 39.1 ± 3.83 | > 1000 | > 1000 | 34.7 ± 1.84 | 201.3 to 203.1 | 
5 |  | Cc1ccc(C)c(-c2cc3ccc(O)cc3oc2=O)c1 [Compound 20, 7-Hydroxy-3-(2,5-dimethylphenyl)-coumarin] | > 1000 | > 1000 | > 1000 | > 1000 | 189.1 to 190.6 | 
6 |  | Cc1ccc(C)c(-c2cc3cccc(O)c3oc2=O)c1 [Compound 21, 8-Hydroxy-3-(2,5-dimethylphenyl)-coumarin] | > 1000 | > 1000 | > 1000 | 213 ± 4.77 | 183.2 to 187.4 | 
7 |  | Cc1ccc(-c2cc3ccc(O)c(O)c3oc2=O)cc1 [Compound 23, 7,8-Dihydroxy-3-(4-methylphenyl)-coumarin] | 3.21 ± 0.04 | 801 ± 41.8 | 25.5 ± 0.52 | 75.9 ± 10.7 | 226.8 to 227.5 | 
8 |  | COc1ccc2cc(-c3ccc(O)cc3)c(=O)oc2c1 [Compound 26, 7-Methoxy-3-(4-hydroxyphenyl)-coumarin] | 68.7 ± 13.4 | > 1000 | > 1000 | 65.9 ± 1.34 | 209 to 209.8 | 
9 |  | COc1ccc2oc(=O)c(-c3ccc(O)cc3)cc2c1 [Compound 27, 6-Methoxy-3-(4-hydroxyphenyl)-coumarin] | 42 ± 0.97 | > 1000 | 70.3 ± 2.95 | 64.5 ± 0.78 | 195.6 to 197.2 | 
10 |  | O=c1oc2cc(O)ccc2cc1-c1ccc(O)c(O)c1 [Compound 29, 7-Hydroxy-3-(3,4-dihydroxyphenyl)-coumarin] | 11.85 ± 0.04 | 982 ± 30 | 29.9 ± 5.15 | 7.48 ± 0.59 | 306 to 307.8 | 
11 | 19 ± 1.11 | O=c1oc2c(O)c(O)ccc2cc1-c1ccc(O)cc1 [Compound 30, 7,8-Dihydroxy-3-(4-hydroxyphenyl)-coumarin] | 2.18 ± 0.04 | 697 ± 19.6 |  | > 1000 | 287.5 to 288.9 | 
12 |  | O=c1oc2c(O)c(O)ccc2cc1-c1ccc(F)cc1 [Compound 32, 7,8-Dihydroxy-3-(4-fluorophenyl)-coumarin] | 2.06 ± 0.07 | 970 ± 70.9 | > 1000 | 33.5 ± 1.99 | 259.8 to 260.7 | 
13 |  | COc1ccc(-c2cc3ccc(O)c(O)c3oc2=O)cc1 [Compound 34, 7,8-Dihydroxy-3-(4-methoxyphenyl)-coumarin] | 3.66 ± 0.03 | > 1000 | 18.8 ± 1.02 | > 1000 | 234.4 to 235.4 | 
14 |  | COc1ccc(-c2cc3cccc(O)c3oc2=O)cc1OC [Compound 38, 8-Hydroxy-3-(3,4-dimethoxyphenyl)-coumarin] | 16.3 ± 0.44 | > 1000 | 20.2 ± 0.44 | 22.3 ± 1.34 | 162.8 to 163.8 | 
